Values of other authors in article PMC7904233 (Journal of medicinal chemistry, 2020).

System: EBOV Zaire
Conditions: in vivo; cited from earlier work

Question: With CN(C)CCOc1ccc(/C(=C(/CCCl)c2ccccc2)c2ccccc2)cc1 [Compound 1, Toremifene] as the compound, how does the mouse survival read?
Answer: 50%

Question: With CCN(CC)CCOc1ccc(C(=C(Cl)c2ccccc2)c2ccccc2)cc1 [clomiphene] as the compound, how does the mouse survival read?
Answer: 90%
